# In US11254663B2 (BRISTOL-MYERS SQUIBB COMPANY, priority 2019, dated 2022):
# Biological target: FXR (Homo sapiens (Human), UniProt Q96RI1)
# Experiment: transient human FXR/Gal4-luciferase reporter assay
# Type: cell-based
# Conditions: not given
# Procedure, shortened: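 HEK293 cells stably carrying a 5×Gal4 response element–firefly luciferase reporter were transiently transfected overnight with a Gal4 DBD–human FXR LBD fusion plasmid. Compound was added in DMSO and cells were incubated overnight at 37 °C, 5% CO2. Activity was read as Steady-Glo luminescence.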
# Chain of FXR (Q96RI1 262-486): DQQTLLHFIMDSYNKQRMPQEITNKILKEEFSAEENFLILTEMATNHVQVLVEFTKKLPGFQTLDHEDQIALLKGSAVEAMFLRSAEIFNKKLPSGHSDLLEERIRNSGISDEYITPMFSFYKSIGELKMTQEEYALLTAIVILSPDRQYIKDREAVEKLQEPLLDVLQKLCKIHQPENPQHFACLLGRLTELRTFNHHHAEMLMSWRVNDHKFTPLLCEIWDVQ
row,Compound,EC50 [nM]
1,"CC(C)(C)c1nc(C23CCC(CN(C(=O)C45CC(F)(C4)C5)c4cc(-c5ccc6[nH]c(=O)oc6c5)ccn4)(CC2)CC3)no1 [Example 540, N-((4-(5-(tert-butyl)-1,2,4-oxadiazol-3-yl)bicyclo[2.2.2]octan-1-yl)methyl)-3-fluoro-N-(4-(2-oxo-2,3-dihydrobenzo[d]oxazol-6-yl)pyridin-2-yl)bicyclo[1.1.1]pentane-1-carboxamide]",71
2,"CCOc1cnc(-c2ccnc(N(CC34CCC(c5noc(C(C)(C)C)n5)(CC3)CC4)C(=O)C34CC(F)(C3)C4)c2)nc1 [Example 542, N-((4-(5-(tert-butyl)-1,2,4-oxadiazol-3-yl)bicyclo[2.2.2]octan-1-yl)methyl)-N-(4-(5-ethoxypyrimidin-2-yl)pyridin-2-yl)-3-fluorobicyclo[1.1.1]pentane-1-carboxamide]",22
3,"CCc1cnc(-c2ccnc(N(CC34CCC(c5noc(C(C)(C)C)n5)(CC3)CC4)C(=O)C34CC(F)(C3)C4)c2)nc1 [Example 543, N-((4-(5-(tert-butyl)-1,2,4-oxadiazol-3-yl)bicyclo[2.2.2]octan-1-yl)methyl)-N-(4-(5-ethylpyrimidin-2-yl)pyridin-2-yl)-3-fluorobicyclo[1.1.1]pentane-1-carboxamide]",14
4,"CC(C)(C)c1nc(C23CCC(CN(C(=O)C45CC(F)(C4)C5)c4cc(-c5ccc(OC(F)F)cn5)ccn4)(CC2)CC3)no1 [Example 544, N-((4-(5-(tert-butyl)-1,2,4-oxadiazol-3-yl)bicyclo[2.2.2]octan-1-yl)methyl)-N-(5-(difluoromethoxy)-[2,4′-bipyridin]-2′-yl)-3-fluorobicyclo[1.1.1]pentane-1-carboxamide]",20
5,"Cc1nc2ccc(-c3ccnc(N(CC45CCC(c6cc(C7CC7)nn6C)(CC4)CC5)C(=O)C45CC(F)(C4)C5)c3)cc2s1 [Example 546, N-((4-(3-cyclopropyl-1-methyl-1H-pyrazol-5-yl)bicyclo[2.2.2]octan-1-yl)methyl)-3-fluoro-N-(4-(2-methylbenzo[d]thiazol-6-yl)pyridin-2-yl)bicyclo[1.1.1]pentane-1-carboxamide]",48
6,"Cn1nc(C2CC2)cc1C12CCC(CN(C(=O)C34CC(F)(C3)C4)c3cc(-c4ccc(NS(C)(=O)=O)cc4)ccn3)(CC1)CC2 [Example 547, N-((4-(3-cyclopropyl-1-methyl-1H-pyrazol-5-yl)bicyclo[2.2.2]octan-1-yl)methyl)-3-fluoro-N-(4-(4-(methylsulfonamido)phenyl)pyridin-2-yl)bicyclo[1.1.1]pentane-1-carboxamide]",251
7,"Cc1nc2ccc(-c3cccc(N(CC45CCC(c6nc(C7CC7)no6)(CC4)CC5)C(=O)C45CC(F)(C4)C5)c3)cc2s1 [Example 555, N-((4-(3-cyclopropyl-1,2,4-oxadiazol-5-yl)bicyclo[2.2.2]octan-1-yl)methyl)-3-fluoro-N-(3-(2-methylbenzo[d]thiazol-6-yl)phenyl)bicyclo[1.1.1]pentane-1-carboxamide]",55
8,"O=C(C1CC(F)(F)C1)N(CC12CCC(c3nc(C4CC4)no3)(CC1)CC2)c1cccc(-c2nc3cc(F)ccc3o2)c1 [Example 560, N-((4-(3-cyclopropyl-1,2,4-oxadiazol-5-yl)bicyclo[2.2.2]octan-1-yl)methyl)-3,3-difluoro-N-(3-(5-fluorobenzo[d]oxazol-2-yl)phenyl)cyclobutane-1-carboxamide]",1510
9,"Cc1nc2ccc(-c3cccc(N(CC45CCC(c6nnc(C7CC7)o6)(CC4)CC5)C(=O)C4CC(C(F)F)C4)c3)cc2s1 (stereo not drawn) [Example 562, N-((4-(5-cyclopropyl-1,3,4-oxadiazol-2-yl)bicyclo[2.2.2]octan-1-yl)methyl)-3-(difluoromethyl)-N-(3-(2-methylbenzo[d]thiazol-6-yl)phenyl)cyclobutane-1-carboxamide]",318
10,"Cc1nc2ccc(-c3cccc(N(CC45CCC(c6nnc(C7CC7)o6)(CC4)CC5)C(=O)C4CCC(F)(F)C4)c3)cc2s1 (stereo not drawn) [Example 563, N-((4-(5-cyclopropyl-1,3,4-oxadiazol-2-yl)bicyclo[2.2.2]octan-1-yl)methyl)-3,3-difluoro-N-(3-(2-methylbenzo[d]thiazol-6-yl)phenyl)cyclopentane-1-carboxamide]",154

# Same assay, conditions: Gal4-hFXR fusion construct, HEK293 reporter cells; response relative to 8 μM GW-4064
row,Compound,EC50 [nM]
1,"Cc1nc2ccc(-c3ccnc(N(CC45CCC(c6nc(C7CC7)no6)(CC4)CC5)C(=O)C45CC(F)(C4)C5)c3)cc2o1 [Example 550, N-((4-(3-cyclopropyl-1,2,4-oxadiazol-5-yl)bicyclo[2.2.2]octan-1-yl)methyl)-3-fluoro-N-(4-(2-methylbenzo[d]oxazol-6-yl)pyridin-2-yl)bicyclo[1.1.1]pentane-1-carboxamide]",70
2,"COc1ccc(C23CCC(CN(C(=O)C4CC(F)(F)C4)c4cccc(-c5ccc6nc(C)sc6c5)c4)(CC2)CO3)cc1 [Example 557, 3,3-Difluoro-N-((1-(4-methoxyphenyl)-2-oxabicyclo[2.2.2]octan-4-yl)methyl)-N-(3-(2-methylbenzo[d]thiazol-6-yl)phenyl)cyclobutane-1-carboxamide]",1580

# Further lines, results first:
row,EC50 [nM],Compound
1,18,"CC(C)(C)c1nc(C23CCC(CN(C(=O)C45CC(F)(C4)C5)c4cc(-c5ncc(OC(F)F)cn5)ccn4)(CC2)CC3)no1 [Example 541, N-((4-(5-(tert-butyl)-1,2,4-oxadiazol-3-yl)bicyclo[2.2.2]octan-1-yl)methyl)-N-(4-(5-(difluoromethoxy)pyrimidin-2-yl)pyridin-2-yl)-3-fluorobicyclo[1.1.1]pentane-1-carboxamide]"
2,115,"Cn1nc(C2CC2)cc1C12CCC(CN(C(=O)C34CC(F)(C3)C4)c3cc(-c4ccc(OC(F)F)cc4)ccn3)(CC1)CC2 [Example 545, N-((4-(3-cyclopropyl-1-methyl-1H-pyrazol-5-yl)bicyclo[2.2.2]octan-1-yl)methyl)-N-(4-(4-(difluoromethoxy)phenyl)pyridin-2-yl)-3-fluorobicyclo[1.1.1]pentane-1-carboxamide]"
3,111,"CCOc1ncc(-c2ccnc(N(CC34CCC(c5nc(C6CC6)no5)(CC3)CC4)C(=O)C34CC(F)(C3)C4)c2)cn1 [Example 548, N-((4-(3-cyclopropyl-1,2,4-oxadiazol-5-yl)bicyclo[2.2.2]octan-1-yl)methyl)-N-(4-(2-ethoxypyrimidin-5-yl)pyridin-2-yl)-3-fluorobicyclo[1.1.1]pentane-1-carboxamide]"
4,36,"Cc1nc2ccc(-c3ccnc(N(CC45CCC(c6nc(C7CC7)no6)(CC4)CC5)C(=O)C45CC(F)(C4)C5)c3)cc2s1 [Example 549, N-((4-(3-cyclopropyl-1,2,4-oxadiazol-5-yl)bicyclo[2.2.2]octan-1-yl)methyl)-3-fluoro-N-(4-(2-methylbenzo[d]thiazol-6-yl)pyridin-2-yl)bicyclo[1.1.1]pentane-1-carboxamide]"
5,55,"Cc1nc2ccc(-c3ccnc(N(CC45CCC(c6nc(C(C)(C)C)no6)(CC4)CC5)C(=O)C45CC(F)(C4)C5)c3)cc2s1 [Example 551, N-((4-(3-(tert-butyl)-1,2,4-oxadiazol-5-yl)bicyclo[2.2.2]octan-1-yl)methyl)-3-fluoro-N-(4-(2-methylbenzo[d]thiazol-6-yl)pyridin-2-yl)bicyclo[1.1.1]pentane-1-carboxamide]"
6,359,"CCOc1ncc(-c2cccc(N(CC34CCC(c5ncc(OC)cn5)(CC3)CC4)C(=O)C34CC(F)(C3)C4)c2)cn1 [Example 552, N-(3-(2-ethoxypyrimidin-5-yl)phenyl)-3-fluoro-N-((4-(5-methoxypyrimidin-2-yl)bicyclo[2.2.2]octan-1-yl)methyl)bicyclo[1.1.1]pentane-1-carboxamide]"
7,1590,"CCOc1ncc(-c2cccc(N(CC34CCC(c5nc(C(C)(C)C)no5)(CC3)CO4)C(=O)C34CC(F)(C3)C4)c2)cn1 [Example 553, N-((4-(3-(tert-butyl)-1,2,4-oxadiazol-5-yl)-2-oxabicyclo[2.2.2]octan-1-yl)methyl)-N-(3-(2-ethoxypyrimidin-5-yl)phenyl)-3-fluorobicyclo[1.1.1]pentane-1-carboxamide]"
8,232,"Cc1nc2ccc(-c3cccc(N(CC45CCC(c6nc(C7CC7)no6)(CC4)CC5)C(=O)C4CC(F)(F)C4)c3)cc2s1 [Example 554, N-((4-(3-cyclopropyl-1,2,4-oxadiazol-5-yl)bicyclo[2.2.2]octan-1-yl)methyl)-3,3-difluoro-N-(3-(2-methylbenzo[d]thiazol-6-yl)phenyl)cyclobutane-1-carboxamide]"
9,816,"COc1ccc(C23CCC(CN(C(=O)C45CC(F)(C4)C5)c4cccc(-c5ccc6nc(C)sc6c5)c4)(CC2)CO3)cc1 [Example 556, 3-Fluoro-N-((1-(4-methoxyphenyl)-2-oxabicyclo[2.2.2]octan-4-yl)methyl)-N-(3-(2-methylbenzo[d]thiazol-6-yl)phenyl)bicyclo[1.1.1]pentane-1-carboxamide]"
10,561,"COc1ncc(C23CCC(CN(C(=O)C45CC(F)(C4)C5)c4cccc(-c5ccc6nc(C)sc6c5)c4)(CC2)CO3)cn1 [Example 558, 3-Fluoro-N-((1-(2-methoxypyrimidin-5-yl)-2-oxabicyclo[2.2.2]octan-4-yl)methyl)-N-(3-(2-methylbenzo[d]thiazol-6-yl)phenyl)bicyclo[1.1.1]pentane-1-carboxamide]"
11,217,"O=C(N(CC12CCC(c3nc(C4CC4)no3)(CC1)CC2)c1cccc(-c2nc3cc(F)ccc3o2)c1)C12CC(F)(C1)C2 [Example 559, N-((4-(3-Cyclopropyl-1,2,4-oxadiazol-5-yl)bicyclo[2.2.2]octan-1-yl)methyl)-3-fluoro-N-(3-(5-fluorobenzo[d]oxazol-2-yl)phenyl)bicyclo[1.1.1]pentane-1-carboxamide]"
12,58,"Cc1nc2ccc(-c3cccc(N(CC45CCC(c6nnc(C7CC7)o6)(CC4)CC5)C(=O)C45CC(F)(C4)C5)c3)cc2s1 [Example 561, N-((4-(5-cyclopropyl-1,3,4-oxadiazol-2-yl)bicyclo[2.2.2]octan-1-yl)methyl)-3-fluoro-N-(3-(2-methylbenzo[d]thiazol-6-yl)phenyl)bicyclo[1.1.1]pentane-1-carboxamide]"
